Source: ChEMBL document CHEMBL1201862, “PubChem BioAssay data set” (2004)
Calls of active or inactive are those of the source.

Key:
[1] = target: T1, Corticotropin-releasing factor receptor 2/Corticotropin-releasing factor-binding protein (Homo sapiens, UniProt P24387+Q13324); experiment: activators of CRF receptor 2 with binding protein – uHTS hits, confirmation (AID 602473); type: functional; conditions: read-out: EC50_Mean
T1 sequence (Q13324 whole entry): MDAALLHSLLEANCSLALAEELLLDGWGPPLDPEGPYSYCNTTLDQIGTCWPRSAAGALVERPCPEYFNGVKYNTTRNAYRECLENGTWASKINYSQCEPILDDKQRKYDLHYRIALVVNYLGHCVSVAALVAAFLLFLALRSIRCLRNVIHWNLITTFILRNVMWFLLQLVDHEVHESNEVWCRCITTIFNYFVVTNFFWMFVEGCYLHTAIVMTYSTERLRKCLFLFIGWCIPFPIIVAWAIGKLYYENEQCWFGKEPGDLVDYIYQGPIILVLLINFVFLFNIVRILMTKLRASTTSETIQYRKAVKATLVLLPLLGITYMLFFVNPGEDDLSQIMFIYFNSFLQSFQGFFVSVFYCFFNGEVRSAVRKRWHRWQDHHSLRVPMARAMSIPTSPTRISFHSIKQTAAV
T1 sequence (P24387 whole entry): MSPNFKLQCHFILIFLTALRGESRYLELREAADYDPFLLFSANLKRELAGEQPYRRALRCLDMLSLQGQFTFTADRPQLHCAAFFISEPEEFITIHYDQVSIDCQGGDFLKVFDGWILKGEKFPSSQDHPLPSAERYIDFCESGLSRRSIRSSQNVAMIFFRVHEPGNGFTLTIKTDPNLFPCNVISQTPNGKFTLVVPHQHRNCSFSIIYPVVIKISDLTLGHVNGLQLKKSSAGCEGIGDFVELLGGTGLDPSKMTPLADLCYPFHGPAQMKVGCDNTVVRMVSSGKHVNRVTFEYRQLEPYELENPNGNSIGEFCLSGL

[2] = blockers of CRF-binding protein–CRF-R2 complex – cell-based, uHTS hits, 384-well, dose response (AID 651639); type: functional, Homo sapiens; conditions: read-out: IC50_Mean
[3] = target: T1, Corticotropin-releasing factor receptor 2/Corticotropin-releasing factor-binding protein; experiment: Dose Response confirmation of uHTS hits for small molecule antagonists of the CRF-binding protein and CRF-R2 receptor complex.; type: functional; conditions: read-out: IC50_Mean
INS1 = experiment: INS-1E survival protection against cytokine death – cell-based, luminescence, retest, dose response (AID 449756); type: functional; conditions: Rattus norvegicus;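 further: cell death triggered by IL-1 beta plus TNF-alpha plus IFN-gamma mixture; protective hits raise ATP signal compared with cytokine alone wells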
[4] = loss of viability in HepG2 cells – cell-based, CellTiter-Glo, cherry-picked, cytotoxicity control for Shn3 inhibitor project, dose response (AID 624134); type: functional
Protein Wnt-3a = Protein Wnt-3a (Mus musculus, UniProt P27467); experiment: antagonism of Wnt3a pathway luciferase reporter – Wnt-LIGHT cells, luminescence, selectivity assay for Gli-SUFU antagonist project, dose response (AID 651570); type: functional; conditions: read-out: IC50_Mean;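 further: Wnt-LIGHT reporter cells stimulated with conditioned medium from Wnt3a-producing cells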
[5] = non-specific 3'UTR reporter inhibition in Clone20-Shn3RL – cell-based, Renilla luciferase, cherry-picked, counter-screen for Shn3 inhibitor project, dose response (AID 624133); type: functional
[6] = Luminescence Cell-Based Dose Confirmation HTS to Identify Inhibitors of Platelet Dense Granule Release. [Related pubchem assays: 1663 (Primary HTS), 1678 (Summary of Project)]; type: functional
[7] = target: Luciferin 4-monooxygenase (Photinus pyralis, UniProt P08659); experiment: inhibition of purified Photinus pyralis luciferase – biochemical, luminescence, dose response (AID 1891)
[8] = reduction of Shn3 3'UTR-driven luciferase in osteoblasts – cell-based, Clone20 osteoblasts, firefly luciferase, cherry-picked, dose response (AID 624132); type: functional;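 further: firefly luciferase luminescence from reporter carrying the Shn3 3'UTR in osteoblasts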
[9] = target: T2, Histone-lysine N-methyltransferase NSD2 (Homo sapiens, UniProt O96028); type: biochemical
T2 sequence (O96028 whole entry): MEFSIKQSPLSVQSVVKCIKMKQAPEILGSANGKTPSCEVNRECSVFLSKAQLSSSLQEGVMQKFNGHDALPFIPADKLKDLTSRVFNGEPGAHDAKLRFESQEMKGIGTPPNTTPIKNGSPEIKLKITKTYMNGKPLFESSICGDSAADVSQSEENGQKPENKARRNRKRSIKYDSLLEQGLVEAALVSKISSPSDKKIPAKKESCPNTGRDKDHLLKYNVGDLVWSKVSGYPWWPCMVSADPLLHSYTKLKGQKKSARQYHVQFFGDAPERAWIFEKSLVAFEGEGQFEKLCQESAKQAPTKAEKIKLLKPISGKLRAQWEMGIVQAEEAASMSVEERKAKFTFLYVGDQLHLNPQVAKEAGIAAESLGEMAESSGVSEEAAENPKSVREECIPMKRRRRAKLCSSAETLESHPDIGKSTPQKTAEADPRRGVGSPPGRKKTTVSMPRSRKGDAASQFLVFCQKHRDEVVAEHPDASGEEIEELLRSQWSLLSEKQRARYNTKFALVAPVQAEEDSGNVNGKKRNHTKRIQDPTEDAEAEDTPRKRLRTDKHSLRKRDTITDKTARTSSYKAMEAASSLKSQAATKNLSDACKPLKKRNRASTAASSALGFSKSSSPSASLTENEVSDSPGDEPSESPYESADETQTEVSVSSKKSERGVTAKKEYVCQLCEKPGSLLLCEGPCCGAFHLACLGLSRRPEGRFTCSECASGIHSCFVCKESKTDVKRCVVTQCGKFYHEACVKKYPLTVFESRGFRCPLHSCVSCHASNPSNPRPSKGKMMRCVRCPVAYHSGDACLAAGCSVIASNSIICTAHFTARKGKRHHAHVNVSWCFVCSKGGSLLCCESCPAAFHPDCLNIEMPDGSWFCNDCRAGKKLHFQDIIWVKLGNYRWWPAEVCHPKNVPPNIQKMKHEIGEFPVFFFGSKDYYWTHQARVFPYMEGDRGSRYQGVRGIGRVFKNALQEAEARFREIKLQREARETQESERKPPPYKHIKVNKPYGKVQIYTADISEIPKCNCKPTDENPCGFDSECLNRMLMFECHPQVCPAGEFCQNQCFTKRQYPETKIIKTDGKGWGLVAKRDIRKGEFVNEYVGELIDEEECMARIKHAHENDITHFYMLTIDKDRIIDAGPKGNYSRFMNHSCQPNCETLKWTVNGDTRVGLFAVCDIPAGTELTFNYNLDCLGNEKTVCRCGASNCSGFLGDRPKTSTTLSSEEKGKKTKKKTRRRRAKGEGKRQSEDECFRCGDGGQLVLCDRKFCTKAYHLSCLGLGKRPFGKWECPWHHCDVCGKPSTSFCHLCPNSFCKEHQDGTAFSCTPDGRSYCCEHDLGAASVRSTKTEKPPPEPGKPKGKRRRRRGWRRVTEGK

Genome polyprotein = Genome polyprotein (dengue virus type 2, UniProt P29990); experiment: flavivirus cap methylation enzyme inhibition – biochemical, confirmation dose response, primary screen (AID 588689); type: functional
[10] = NIH-3T3 fibroblast cytotoxicity, dose response, cytotoxicity control, cell-based, fluorescence, Alamar Blue, secondary assay (AID 2327); type: functional;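 further: NIH-3T3 mouse fibroblasts cultured with fluconazole at 8 µg/mL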
[11] = fluconazole-exposed Candida albicans growth modulators – fluorescence, retest, confirmation (AID 2467); type: functional, cell-based
[12] = viability of uninfected HEp-2 cells – cell-based, HTS, cytotoxicity control for RSV inhibitor project, dose response (AID 2410); type: functional; conditions: human respiratory syncytial virus

Genome polyprotein, sequence (P29990 2492-3391 limits assumed): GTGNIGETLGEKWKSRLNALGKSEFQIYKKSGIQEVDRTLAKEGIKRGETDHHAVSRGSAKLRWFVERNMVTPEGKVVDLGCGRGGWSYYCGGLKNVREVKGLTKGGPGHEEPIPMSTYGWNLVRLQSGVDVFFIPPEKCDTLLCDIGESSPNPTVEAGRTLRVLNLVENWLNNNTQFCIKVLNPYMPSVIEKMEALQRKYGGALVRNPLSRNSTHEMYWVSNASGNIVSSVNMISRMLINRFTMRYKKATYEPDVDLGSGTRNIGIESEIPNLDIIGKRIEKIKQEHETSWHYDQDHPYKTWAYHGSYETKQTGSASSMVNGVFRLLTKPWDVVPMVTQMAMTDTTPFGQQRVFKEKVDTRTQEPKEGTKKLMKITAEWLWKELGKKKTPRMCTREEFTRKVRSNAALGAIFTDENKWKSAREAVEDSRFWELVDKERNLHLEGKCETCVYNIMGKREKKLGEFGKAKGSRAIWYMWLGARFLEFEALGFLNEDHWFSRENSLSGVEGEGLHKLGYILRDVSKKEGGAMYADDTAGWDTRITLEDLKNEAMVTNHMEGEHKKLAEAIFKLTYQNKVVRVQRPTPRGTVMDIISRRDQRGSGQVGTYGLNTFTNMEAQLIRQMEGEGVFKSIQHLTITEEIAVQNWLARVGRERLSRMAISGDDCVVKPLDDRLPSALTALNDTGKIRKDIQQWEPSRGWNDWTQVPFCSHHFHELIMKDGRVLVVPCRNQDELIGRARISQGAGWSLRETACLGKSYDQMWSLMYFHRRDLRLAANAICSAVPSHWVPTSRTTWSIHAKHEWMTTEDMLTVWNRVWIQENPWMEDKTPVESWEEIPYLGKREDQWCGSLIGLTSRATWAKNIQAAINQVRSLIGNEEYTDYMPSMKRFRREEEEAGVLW
Protein Wnt-3a, sequence (P27467 whole entry): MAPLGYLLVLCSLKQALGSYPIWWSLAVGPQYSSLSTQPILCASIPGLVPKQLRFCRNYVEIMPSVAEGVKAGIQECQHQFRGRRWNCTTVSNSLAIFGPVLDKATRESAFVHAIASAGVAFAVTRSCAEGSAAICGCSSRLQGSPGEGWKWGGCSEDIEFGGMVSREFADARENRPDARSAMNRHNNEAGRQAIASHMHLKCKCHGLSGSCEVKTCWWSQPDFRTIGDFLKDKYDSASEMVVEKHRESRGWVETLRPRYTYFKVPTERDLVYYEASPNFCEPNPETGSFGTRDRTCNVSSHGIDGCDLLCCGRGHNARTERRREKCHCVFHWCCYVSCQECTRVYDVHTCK
Luciferin 4-monooxygenase, sequence (P08659 whole entry): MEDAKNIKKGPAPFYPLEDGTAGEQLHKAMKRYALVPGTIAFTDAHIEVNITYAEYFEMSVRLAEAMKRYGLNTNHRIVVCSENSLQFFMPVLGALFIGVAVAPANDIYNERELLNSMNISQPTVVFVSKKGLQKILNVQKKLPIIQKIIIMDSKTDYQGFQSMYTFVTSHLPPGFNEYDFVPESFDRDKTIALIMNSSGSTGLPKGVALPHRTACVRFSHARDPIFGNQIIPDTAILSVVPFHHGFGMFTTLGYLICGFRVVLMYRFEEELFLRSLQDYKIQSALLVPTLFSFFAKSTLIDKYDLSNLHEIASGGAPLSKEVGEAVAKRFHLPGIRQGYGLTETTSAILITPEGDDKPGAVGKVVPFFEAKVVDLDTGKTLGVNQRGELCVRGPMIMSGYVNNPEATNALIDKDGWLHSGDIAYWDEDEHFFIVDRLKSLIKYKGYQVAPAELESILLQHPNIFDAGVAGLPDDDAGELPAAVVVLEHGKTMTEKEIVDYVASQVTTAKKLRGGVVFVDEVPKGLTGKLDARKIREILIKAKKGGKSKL

For `COc1ccc(-c2csc(NC(=O)CSc3nc(SC)ns3)n2)cc1`, the EC50 [1] was > 53 µM (inactive), the IC50 [2] was 4.64 µM (active) and the IC50 [3] was 1.75 µM (active).
In the case of `Cc1cccnc1CN1CCN(C(=O)c2cc(COc3ccc4ncccc4c3)on2)CC1`, the AC50 (INS1) is reported as 3.77 µM (active), the AC50 [4] is reported as 7.57 µM (active) and the IC50 (Protein Wnt-3a) is reported as 1.62 µM (active). For the same molecule, the AC50 [5] was 2.78 µM (active), the EC50 [6] was > 112 µM (not active) and the EC50 [7] was > 112 µM (not active). For the same molecule, the AC50 [8] was 2.1 µM (active).
In the case of `C=CCOc1ccc(/C=C2\SC(=S)N(NS(=O)(=O)c3ccc(C)cc3)C2=O)cc1`, the AC50 [9] is reported as 11.7 µM (active), the IC50 (Genome polyprotein) is reported as 32.9 µM (active) and the EC50 [10] is reported as > 160 µM (inactive). For the same molecule, the EC50 [11] was 1.66 µM (active) and the CC50 [12] was 25 µM (active).
